Experimental data published in article PMC7897990, “TriTOX: A novel Trichomonas vaginalis assay platform for high-throughput screening of compound libraries” (International Journal for Parasitology: Drugs and Drug …, 2021).
Where two headings read alike, the source gives them in different places.

Assays:
[1] = test system: Trichomonas vaginalis G3 trophozoites; assay: microbe, parasite or virus in culture; details: 48 h
[2] = test system: nontumorigenic neonatal foreskin fibroblast (NFF) cell line
[3] = test system: Trichomonas vaginalis G3 trophozoites; details: for T.vaginalis_Absorbance_Rep1: replicate 1, raw absorbance; for T.vaginalis_Absorbance_Rep2: replicate 2, raw absorbance; for T. vaginalis HTS results / T. vaginalis HTS result in words: 384-well, 25 μL, 10,000 cells/mL, 48 h, biological duplicates; for T. vaginalis HTS results: 10% chromogen, single concentration; for T. vaginalis HTS result in words: hit = >50% inhibition
[4] = test system: T. vaginalis; assay: Medium-throughput (MTS) confirmatory dose-response growth assay, T. vaginalis; format: cell-based, Trichomonas vaginalis; details: for activity against T. vaginalis in MTS, in words: 10-point dilution series, 96-well; for activity against T. vaginalis in MTS, in words / IC50: 48 h; for IC50: 96-well, 10,000 cells/mL in 50 μL, mean ± SEM, >10 = no appreciable activity at highest dose; for species-specificity T. vaginalis vs T. foetus in MTS: comparison of MTS IC50 in both species
Description: (§1) For microtiter plate assays, trichomonads were grown in anaerobic conditions within GasPak EZ anaerobe pouches with fresh anaerobic sachets. Working reagent of the chromogen was phenol red (Sigma) in a 1% w/v working solution in phosphate buffered saline (PBS), which was filter sterilised. Chromogen absorbance was monitored at 570 nm on an absorbance microplate reader after plates were allowed to equilibrate in atmospheric conditions at room temperature for at least 5 min.
(§2) After absorbances were measured, data were processed as followed unless indicated otherwise in the text. […] Prism 8 (GraphPad) was used to plot dose-response curves and calculate IC50 values, using a least squares regression, log[inhibitor] vs normalised response (variable slope, four parameters) model. Where replicate plates were used, data for dose-response curves were plotted as the mean±SD of these replicates.
(§3) A selection of 17 compounds assayed in the high-throughput screen (HTS) for T. vaginalis which were available through BioAustralis were obtained for validation of inhibitory in/activity in our optimised medium-throughput format. For this, a 10-point serial dilution was used for drug-susceptibility testing to calculate IC50 values of ‘hit’ compounds. Mtz was used as a positive control. Each screen was performed with 3 technical replicates and a minimum of 2 biological replicates in both T. vaginalis and T. foetus using assay conditions of seeds of 10,000 cells/mL in 50 μL, with absorbance measured at 48 h. Dose response curves and IC50 were calculated for each compound as described above in Section 2.3.

[5] = test system: T. foetus; assay: Medium-throughput (MTS) confirmatory dose-response growth assay, T. foetus; format: cell-based, Tritrichomonas foetus; details: 48 h; for IC50: 96-well, 10,000 cells/mL in 50 μL, mean ± SEM, >10 = no appreciable activity at highest dose
Description: as §1, §2, §3

[6] = read-out: T.vaginalis_%inb_Rep1
[7] = read-out: T.vaginalis_%inb_Rep2
[8] = HTS, parasite screen at 1 µg/mL
[9] = NFF fibroblast screen at 5 µg/mL, A = active, I = inactive
[10] = HTS, parasite screen at 1 µg/mL, replicate 1
[11] = HTS, parasite screen at 1 µg/mL, replicate 2

| SMILES | activity against T. vaginalis in MTS, in words [4] | IC50 [4] [µM] | IC50 [5] [µM] | species-specificity T. vaginalis vs T. foetus in MTS [4] | T.vaginalis_%inb_Rep1 [3, 10] [%] | T.vaginalis_%inb_Rep2 [3, 11] [%] | further results |
| --- | --- | --- | --- | --- | --- | --- | --- |
| C=Cc1cc(OC)c2c(c1)c(=O)oc1c2cc(OC)c2c(O)ccc([C@H]3O[C@H](C)[C@H](O)[C@H](O)[C@H]3O)c21 [Gilvocarcin V] |  |  |  |  |  |  | inhibition of growth at 1 µg/mL [1, 6]: 4.46%; inhibition of growth at 1 µg/mL [1, 7]: 4.55%; NFF_Activity ([2]; NFF_NS1 screen at 5 µg/mL): I (otherwise these were reported as inactive (I)); T.vaginalis_Absorbance_Rep1 [3, 8]: 0.79; T.vaginalis_Absorbance_Rep2 [3, 8]: 0.706 |
| CCC(C)CC1CCC(O)(C(C)(O)C(=O)NC2C(=O)N3NCCCC3C(=O)N(O)C(C)C(=O)NCC(=O)N3NCCCC3C(=O)N(O)C(C)C(=O)OC2C(C)C)OC1C (stereo not shown) [L 156602] | true positives | 0.059 ± 0.004 | 0.44 ± 0.18 |  |  |  |  |
| CC(C=CC1OC(=O)C=CC1C)=CC(C)CC=CC(C)=CC(C)C(=O)C(C)C(O)C(C)CC(C)=CC(=O)O (stereo not shown) [Leptomycin A, leptomycin A] | true negatives | > 10 | > 10 |  |  |  | T. vaginalis HTS results [3]: I |
| CCC(=C/[C@H](C)C/C=C/C(C)=C/[C@@H](C)C(=O)[C@@H](C)[C@H](O)[C@@H](C)C/C(C)=C/C(=O)O)/C=C/[C@@H]1OC(=O)C=C[C@@H]1C [Leptomycin B, leptomycin B] | no activity |  |  |  |  |  | IC50 ([4]; Trichomonas vaginalis): > 10 µM; IC50 ([5]; Tritrichomonas foetus): > 10 µM |
| COC(=O)c1ccc(CCCCCCCCCCc2ccc(C(=O)OC)nc2)cn1 [Penicolinate A, penicolinate A] | true positives | 2.7 ± 0.9 |  | selective activity against T. vaginalis but not T. foetus |  |  | T.vaginalis_%inb_Rep1 ([3]; HTS replicate 1, parasite screen 1 µg/mL): 78.85%; T.vaginalis_%inb_Rep2 ([3]; HTS replicate 2, parasite screen 1 µg/mL): 85.50%; activity against T. foetus in MTS, in words ([5]; 10-point dilution series, 96-well): weak activity |
| CSC[S@+]([O-])C[C@H](CO)NC(=O)/C=C/c1c(C)[nH]c(=O)[nH]c1=O [Sparsomycin, sparsomycin] | true positives |  |  | selective activity against T. vaginalis but not T. foetus |  |  | IC50 ([4]; Trichomonas vaginalis): 2.3 µM; IC50 ([5]; Tritrichomonas foetus): > 10 µM |
| Cn1ncnc2c(=O)n(C)c(=O)nc1-2 [Toxoflavin, toxoflavin, reference compound] | confirmed active | 3.1 ± 1.7 | 4.1 ± 0.9 | remained active against both T. vaginalis and T. foetus | 5.72 | 100.00 | NFF_Activity [2, 9]: A (active (A) compounds having >25% inhibitory activity); T. vaginalis HTS result in words [3]: partial hits |
| CC(/C=C/C(=O)NO)=C\[C@@H](C)C(=O)c1ccc(N(C)C)cc1 [Trichostatin A, trichostatin A, reference compound] |  | 0.22 ± 0.06 | 0.048 ± 0.006 |  | 71.95 | 67.89 | NFF_Activity [2, 9]: I (otherwise these were reported as inactive (I)); activity against T. vaginalis in MTS, in words ([4]; listed as TSA): true positives; T. vaginalis HTS result in words [3]: supported the anti-trichomonal activity |
| CC(C=CC(=O)NOC1OC(CO)C(O)C(O)C1O)=CC(C)C(=O)c1ccc(N(C)C)cc1 (stereo not shown) [Trichostatin C, trichostatin C, reference compound] | true negatives | > 10 | > 10 |  | 10.28 | 10.24 | T. vaginalis HTS results [3]: I |
| C/C(=C\c1csc(C)n1)[C@@H]1C[C@@H]2O[C@]2(C)CCC[C@H](C)[C@H](O)[C@@H](C)C(=O)C(C)(C)[C@@H](O)CC(=O)O1 [epothilone B, reference compound] |  |  |  |  |  |  | inhibition of growth at 1 µg/mL [1, 6]: 74.9%; inhibition of growth at 1 µg/mL [1, 7]: 67.3%; NFF_Activity ([2]; NFF_NS1 screen at 5 µg/mL): I (otherwise these were reported as inactive (I)); T.vaginalis_Absorbance_Rep1 [3, 8]: 2.179; T.vaginalis_Absorbance_Rep2 [3, 8]: 1.684; selectivity: anti-trichomonal vs anti-tumour (NS-1) and cytotoxic (NFF) activity ([3]; single concentration screens of the same library, NS-1/NFF active if >25% inhibition): selective for T. vaginalis |
